Publication PMC6751662, “Pharmacological and functional similarities of the human neuropeptide Y system in C. elegans challenges phylogenetic views on the FLP/NPR system” (Cell Communication and Signaling : CCS, 2019)

Assays:
[1] = biological target: T1, NPFF2R (Homo sapiens, UniProt Q9Y5X5); assay: cAMP reporter gene assay, Gi/o, NPFF2R; type: cell-based; details: for cAMP assay (Gi/o), NPFF2R: 4 h, lower = higher Gi/o activity, transfected HEK293, CRE-luciferase, mean of >=3 independent experiments; for Gi (Gs) [x-fold of forskolin], NPFF2R, mean: inhibition of cAMP production induced by 1 µM forskolin (set to 1.00), transiently transfected HEK293 cells, mean of at least three independent experiments
T1 construct: expressed in transfected cells; host or cells: HEK293, transient
Protocol: (§1) Activation of Gs and Gi/o was assessed with a cAMP reporter gene assay. HEK293 cells grown to 70–80% confluency in 6-well plates were transiently co-transfected with vectors encoding the receptor and the cAMP reporter gene plasmid pGL4.29 [luc2P/CRE/Hygro] (Promega; 4 μg total, 1:1 ratio) using Metafectene Pro (3 μl/μg DNA; Biontex) following the manufacturer’s instructions. 16 h post transfection, the cells were seeded into white 384-well plates at a density of 20,000 cells/well. On the next day, the medium was removed and the cells were stimulated with 20 μl of peptide solution (or forskolin as positive control) in serum-free DMEM for 4 h. For measuring Gi/o activity, the peptide solutions additionally contained 1 μM forskolin to elevate cellular cAMP levels. After incubation, the luciferase substrate OneGlo in lysis buffer (Promega) was added and the luminescence was measured in a microplate reader Tecan Spark (Tecan). Data were analyzed with GraphPad Prism 5.03 and are shown as fold of basal or fold of forskolin in case of Gαi/o activity.
(§2) For in vitro activation, data is presented as mean ± SEM of at least three independent experiments conducted in technical triplicate. […] For the C. elegans NPRs, we considered the strongest response elicited by any of the peptides downstream of a particular receptor as the receptor’s maximal signal. This may or may not be the biological maximum that can be reached by the ‘true’ endogenous agonist. For the human receptors, the response to the established endogenous agonist reflected the maximal signal.

[2] = biological target: T2, NPFF1R (Homo sapiens, UniProt Q9GZQ6); assay: cAMP reporter gene assay, Gi/o, NPFF1R; type: cell-based; details: for cAMP assay (Gi/o), NPFF1R: 4 h, lower = higher Gi/o activity, transfected HEK293, CRE-luciferase, mean of >=3 independent experiments; for Gi (Gs) [x-fold of forskolin], NPFF1R, mean: inhibition of cAMP production induced by 1 µM forskolin (set to 1.00), transiently transfected HEK293 cells, mean of at least three independent experiments
T2 construct: expressed in transfected cells; host or cells: HEK293, transient
Protocol: as §1, §2

[3] = tested on: NPR-6; assay: IP accumulation assay, chimeric GαΔ6qi4myr, NPR-6; type: cell-based, C. elegans; details: 1 h, HBSS + 20 mM LiCl, HEK293 receptor + GαΔ6qi4myr, HTRF IP-One
Protocol: (§3) For measuring IP accumulation, HEK293 cells grown to 70–80% confluency in 6-well plates were transiently co-transfected using Metafectene Pro (2.5 μl/μg DNA; Biontex) with plasmids containing receptor and/or mock (empty pcDNA3.1) (for endogenous Gq-coupling) using 4 μg total DNA in a ratio of 3:1 following the manufacturer’s instructions. For testing Gα16- and GαΔ6qi4myr-coupling, plasmids encoding the corresponding Gα protein were co-transfected instead of mock. Gα16 is naturally promiscuous and stimulates the phospholipase C (PLC) pathway leading to IP production, while the exchange of the C-terminal four amino acids of Gαq for the corresponding residues of Gαi1 in the chimeric GαΔ6qi4myr confers the ability to couple to Gi/o protein-preferring receptors but still stimulate PLC, thus specifically redirecting downstream cellular signaling. 16 h post transfection, the cells were seeded into white 384-well plates at a density of 20,000 cells/well. Media was removed 24 h later and the cells were incubated with the indicated concentration of peptides for 1 h in HBSS + 20 mM LiCl. IP accumulation was measured with the HTRF-based IP-One Gq kit (Cisbio) on a microplate reader (Tecan Spark).
as §2

[4] = biological target: T3, NPR-4b (Caenorhabditis elegans, UniProt A0A078BTK0); assay: IP accumulation assay, chimeric GαΔ6qi4myr, NPR-4b; type: cell-based, C. elegans; details: 1 h, HBSS + 20 mM LiCl, HEK293 receptor + GαΔ6qi4myr, HTRF IP-One
T3 sequence (A0A078BTK0 1-376): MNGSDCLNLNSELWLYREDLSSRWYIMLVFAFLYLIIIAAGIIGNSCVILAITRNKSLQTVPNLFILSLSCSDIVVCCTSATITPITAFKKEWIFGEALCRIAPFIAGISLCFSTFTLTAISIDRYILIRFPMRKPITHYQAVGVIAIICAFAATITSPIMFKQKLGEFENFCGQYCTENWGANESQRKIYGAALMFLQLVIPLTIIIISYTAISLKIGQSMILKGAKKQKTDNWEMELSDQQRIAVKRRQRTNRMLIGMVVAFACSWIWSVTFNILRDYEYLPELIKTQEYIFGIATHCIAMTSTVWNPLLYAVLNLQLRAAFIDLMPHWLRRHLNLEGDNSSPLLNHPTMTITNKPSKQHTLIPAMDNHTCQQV
Protocol: as §3, §2

[5] = biological target: T4, NPR-5b (Caenorhabditis elegans, UniProt Q6F3C9); assay: IP accumulation assay (Table S8), NPR-5b; type: cell-based, C. elegans; details: 1 h, HBSS + 20 mM LiCl, transfected HEK293, Table S8 (title: chimeric GαΔ6qi4myr), HTRF IP-One, mean of >=3 independent experiments
T4 sequence (Q6F3C9 1-433): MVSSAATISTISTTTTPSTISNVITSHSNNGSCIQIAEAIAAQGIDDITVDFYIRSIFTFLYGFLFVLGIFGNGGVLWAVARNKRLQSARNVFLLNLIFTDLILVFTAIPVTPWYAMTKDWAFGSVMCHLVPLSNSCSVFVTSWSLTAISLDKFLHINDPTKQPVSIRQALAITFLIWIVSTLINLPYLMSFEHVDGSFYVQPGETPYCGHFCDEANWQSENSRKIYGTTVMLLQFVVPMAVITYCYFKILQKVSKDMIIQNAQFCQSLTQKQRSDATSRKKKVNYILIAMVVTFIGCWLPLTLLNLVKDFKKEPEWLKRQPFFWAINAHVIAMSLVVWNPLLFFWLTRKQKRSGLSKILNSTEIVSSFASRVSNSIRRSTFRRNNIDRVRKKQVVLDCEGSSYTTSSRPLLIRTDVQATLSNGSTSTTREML
Protocol: as §3, §2

[6] = biological target: T3, NPR-4b; assay: IP accumulation assay, co-transfected Gα16, NPR-4b; type: cell-based, C. elegans; details: 1 h, HBSS + 20 mM LiCl, HEK293 receptor + Gα16, HTRF IP-One, mean of >=3 independent experiments
Protocol: as §3
For in vitro activation, data is presented as mean ± SEM of at least three independent experiments conducted in technical triplicate. […]

[7] = 0.1 µM peptide + 1 µM forskolin (set to 1.00)
[8] = 10 µM peptide + 1 µM forskolin (set to 1.00)
[9] = 0.1 µM peptide (Table S8), mean of >=3 independent experiments
[10] = 10 µM peptide, mean of >=3 independent experiments (Tables S5 and S8)
[11] = 0.1 nM peptide (Table S5), mean of >=3 independent experiments

T1 sequence (Q9Y5X5 103-522): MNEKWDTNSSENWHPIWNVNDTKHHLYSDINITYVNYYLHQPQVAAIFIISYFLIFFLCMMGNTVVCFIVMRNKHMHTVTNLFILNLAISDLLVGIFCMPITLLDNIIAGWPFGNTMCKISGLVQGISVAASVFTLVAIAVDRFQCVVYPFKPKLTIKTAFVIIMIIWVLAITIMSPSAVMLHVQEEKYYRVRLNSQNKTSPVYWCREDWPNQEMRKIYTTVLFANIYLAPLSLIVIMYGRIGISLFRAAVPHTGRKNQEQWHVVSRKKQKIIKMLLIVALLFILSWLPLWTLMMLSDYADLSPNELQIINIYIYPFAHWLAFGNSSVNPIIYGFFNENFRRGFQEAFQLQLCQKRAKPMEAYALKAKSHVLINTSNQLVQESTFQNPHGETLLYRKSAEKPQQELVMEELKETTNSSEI
T2 sequence (Q9GZQ6 whole entry): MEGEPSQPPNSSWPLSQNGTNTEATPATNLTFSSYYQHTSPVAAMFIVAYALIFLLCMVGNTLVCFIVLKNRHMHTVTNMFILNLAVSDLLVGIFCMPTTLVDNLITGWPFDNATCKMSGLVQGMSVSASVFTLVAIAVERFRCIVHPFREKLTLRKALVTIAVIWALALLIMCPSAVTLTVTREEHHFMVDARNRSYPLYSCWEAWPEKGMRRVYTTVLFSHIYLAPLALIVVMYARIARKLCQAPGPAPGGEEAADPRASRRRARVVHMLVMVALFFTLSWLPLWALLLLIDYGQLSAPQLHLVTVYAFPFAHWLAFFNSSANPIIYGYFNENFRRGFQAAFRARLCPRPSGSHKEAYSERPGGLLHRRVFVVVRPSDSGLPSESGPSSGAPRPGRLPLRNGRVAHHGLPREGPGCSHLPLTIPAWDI

IP accumulation with GαΔ6qi4myr, NPR-4b [4, 9] | IP accumulation with GαΔ6qi4myr, NPR-4b [4, 10] | IP accumulation, NPR-5b ([5]; 0.1 µM peptide) | IP accumulation, NPR-5b ([5]; 10 µM peptide) | Substance | IP accumulation with GαΔ6qi4myr, NPR-6 [3, 9] | IP accumulation with GαΔ6qi4myr, NPR-6 [3, 10] | also measured
 |  |  |  | EASAFGDIIGELKGKGLGGRMRF-NH2 [FLP-27, NPY-like C. elegans FLP with C-terminal RxRF/Ya signature] |  |  | cAMP assay (Gi/o), NPFF2R [1, 7]: 0.66 x-fold of forskolin; cAMP assay (Gi/o), NPFF2R [1, 8]: 0.18 x-fold of forskolin; cAMP assay (Gi/o), NPFF1R [2, 7]: 0.76 x-fold of forskolin; cAMP assay (Gi/o), NPFF1R [2, 8]: 0.26 x-fold of forskolin
2.48 x-fold of basal | 8.55 x-fold of basal | 0.99 x-fold of basal | 1.80 x-fold of basal | AGSDPNFLRF-NH2 [FLP-1-2, C. elegans FMRFamide-like peptide, C-terminally amidated, synthesized by SPPS] | 1.14 x-fold of basal | 5.19 x-fold of basal | 
 |  |  |  | APLEGFEDMSGFLRTIDGIQKPRF-NH2 [FLP-33, NPY-like C. elegans FLP with C-terminal RxRF/Ya signature] |  |  | cAMP assay (Gi/o), NPFF2R [1, 7]: 0.82 x-fold of forskolin; cAMP assay (Gi/o), NPFF2R [1, 8]: 0.16 x-fold of forskolin; cAMP assay (Gi/o), NPFF1R [2, 7]: 0.81 x-fold of forskolin; cAMP assay (Gi/o), NPFF1R [2, 8]: 0.47 x-fold of forskolin
 |  |  |  | RGPSGPLAF-NH2 [[R8A]FLP-15-2] |  |  | Gi (Gs) [x-fold of forskolin], NPFF2R, mean ([1]; 0.1 µM peptide): 0.94 x-fold of forskolin; Gi (Gs) [x-fold of forskolin], NPFF2R, mean ([1]; 10 µM peptide): 0.97 x-fold of forskolin; Gi (Gs) [x-fold of forskolin], NPFF1R, mean ([2]; 0.1 µM peptide): 0.91 x-fold of forskolin; Gi (Gs) [x-fold of forskolin], NPFF1R, mean ([2]; 10 µM peptide): 0.71 x-fold of forskolin
4.71 x-fold of basal | 12.66 x-fold of basal | 0.90 x-fold of basal | 1.98 x-fold of basal | ASPSFIRF-NH2 [FLP-4-2, C. elegans FMRFamide-like peptide, C-terminally amidated, synthesized by SPPS] | 0.96 x-fold of basal | 1.19 x-fold of basal | 
 |  |  |  | GLGPRPLAF-NH2 [[R8A]FLP-21, R8A control peptide of FLP-21, penultimate arginine exchanged for an alanine] |  |  | Gi (Gs) [x-fold of forskolin], NPFF2R, mean ([1]; 0.1 µM peptide): 0.88 x-fold of forskolin; Gi (Gs) [x-fold of forskolin], NPFF2R, mean ([1]; 10 µM peptide): 0.60 x-fold of forskolin; Gi (Gs) [x-fold of forskolin], NPFF1R, mean ([2]; 0.1 µM peptide): 1.03 x-fold of forskolin; Gi (Gs) [x-fold of forskolin], NPFF1R, mean ([2]; 10 µM peptide): 0.66 x-fold of forskolin
2.00 x-fold of basal | 5.53 x-fold of basal | 0.91 x-fold of basal | 1.45 x-fold of basal | APKPKFIRF-NH2 [FLP-5-1, C. elegans FMRFamide-like peptide, C-terminally amidated, synthesized by SPPS] | 0.96 x-fold of basal | 0.98 x-fold of basal | IP assay endog. Gαq + GαΔ6qi4myr, NPR-6 [3, 11]: 0.96 x-fold of basal; IP assay endog. Gαq + GαΔ6qi4myr, NPR-4b [4, 11]: 2.00 x-fold of basal; IP assay endog. Gαq + Gα16, NPR-4b ([6]; 0.1 nM peptide (so in the source)): 1.04 x-fold of basal; IP assay endog. Gαq + Gα16, NPR-4b ([6]; 10 µM peptide): 0.84 x-fold of basal
4.77 x-fold of basal | 11.46 x-fold of basal | 1.19 x-fold of basal | 8.18 x-fold of basal | NPENDTPFGTMRF-NH2 [FLP-3-4, C. elegans FMRFamide-like peptide, C-terminally amidated, synthesized by SPPS] | 1.04 x-fold of basal | 5.43 x-fold of basal | 
